Measured values reported in ChEMBL document CHEMBL4190312, “Tau protein aggregation in Alzheimer's disease: An attractive target for the development of novel therapeutic agents” (Eur J Med Chem, 2017).

What was measured:
Homo sapiens [1] = species: Homo sapiens; assay: Selectivity index, ratio of Ki for human beta-hexosaminidase A to Ki for human O-GlcNAcase
Protein O-GlcNAcase = target: T1, Protein O-GlcNAcase (Homo sapiens, UniProt O60502); assay: Competitive inhibition of human O-GlcNAcase by Lineweaver-Burk analysis
T1 sequence (O60502 whole entry): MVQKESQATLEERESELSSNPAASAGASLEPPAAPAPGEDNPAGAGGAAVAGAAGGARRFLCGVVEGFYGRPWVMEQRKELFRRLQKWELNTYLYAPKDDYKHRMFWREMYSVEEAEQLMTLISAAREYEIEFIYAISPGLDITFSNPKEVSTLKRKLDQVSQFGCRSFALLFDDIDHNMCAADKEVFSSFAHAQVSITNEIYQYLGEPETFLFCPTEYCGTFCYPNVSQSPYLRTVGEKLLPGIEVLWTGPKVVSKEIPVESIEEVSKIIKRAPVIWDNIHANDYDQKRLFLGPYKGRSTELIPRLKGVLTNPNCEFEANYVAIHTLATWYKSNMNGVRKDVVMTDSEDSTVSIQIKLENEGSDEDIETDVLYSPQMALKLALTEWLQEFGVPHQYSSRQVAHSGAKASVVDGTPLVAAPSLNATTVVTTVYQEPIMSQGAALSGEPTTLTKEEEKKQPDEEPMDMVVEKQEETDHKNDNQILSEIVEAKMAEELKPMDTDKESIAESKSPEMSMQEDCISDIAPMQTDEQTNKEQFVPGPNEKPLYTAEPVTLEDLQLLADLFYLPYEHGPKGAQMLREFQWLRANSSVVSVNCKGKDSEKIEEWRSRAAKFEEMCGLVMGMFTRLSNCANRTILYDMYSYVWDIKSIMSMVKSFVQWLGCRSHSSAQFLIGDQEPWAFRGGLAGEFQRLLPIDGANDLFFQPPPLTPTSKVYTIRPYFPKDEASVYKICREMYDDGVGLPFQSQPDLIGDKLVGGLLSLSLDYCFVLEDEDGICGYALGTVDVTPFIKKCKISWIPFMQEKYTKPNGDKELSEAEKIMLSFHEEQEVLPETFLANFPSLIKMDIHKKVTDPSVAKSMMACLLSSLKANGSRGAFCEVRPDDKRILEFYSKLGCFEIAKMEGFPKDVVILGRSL

Homo sapiens [2] = species: Homo sapiens; assay: Selectivity index, ratio of Ki for human beta-hexosaminidase B to Ki for human O-GlcNAcase

Ratio Ki (Homo sapiens [1]): 900000
Ki (Protein O-GlcNAcase): 4.1 nM
Ratio Ki (Homo sapiens [2]): 900000
Structure (SMILES): C=C/C=C/C(=O)N[C@H]1c2nc(CCc3ccccc3)cn2[C@H](CO)[C@@H](O)[C@@H]1O
